# What was measured:
# [1] = biological target: T1, Fatty-acid amide hydrolase 1 (Rattus norvegicus, UniProt P97612); test: Inhibitory concentration against Fatty-acid amide hydrolase (FAAH) in rat liver
# T1 sequence (P97612 whole entry): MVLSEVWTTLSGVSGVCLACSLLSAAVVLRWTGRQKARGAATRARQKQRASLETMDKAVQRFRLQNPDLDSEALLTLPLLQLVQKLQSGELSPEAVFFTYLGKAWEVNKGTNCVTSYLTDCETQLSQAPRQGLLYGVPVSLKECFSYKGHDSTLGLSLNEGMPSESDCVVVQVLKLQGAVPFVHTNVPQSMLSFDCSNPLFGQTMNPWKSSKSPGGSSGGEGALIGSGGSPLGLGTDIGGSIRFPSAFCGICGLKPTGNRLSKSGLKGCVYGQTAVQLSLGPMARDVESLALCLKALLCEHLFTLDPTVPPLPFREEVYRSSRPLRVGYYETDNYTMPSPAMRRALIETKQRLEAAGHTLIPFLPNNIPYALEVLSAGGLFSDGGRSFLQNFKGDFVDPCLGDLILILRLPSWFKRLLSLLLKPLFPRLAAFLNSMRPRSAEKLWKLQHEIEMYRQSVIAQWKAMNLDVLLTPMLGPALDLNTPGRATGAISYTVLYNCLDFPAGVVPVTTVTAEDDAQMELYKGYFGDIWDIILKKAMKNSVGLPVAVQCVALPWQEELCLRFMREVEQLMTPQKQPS
# [2] = biological target: T1, Fatty-acid amide hydrolase 1; test: Inhibitory constant against Fatty-acid amide hydrolase (FAAH) in rat liver; format: tissue-based
Compound,IC50 [1] [nM],Ki [2] [nM]
CCc1cc2cc3ccccc3cc2cc1CC(=O)C(F)(F)F,> 100000,> 100000
CCCCOC[C@@H]1CC=CC[C@H]1COCCCC(=O)C(F)(F)F,2400,440
CCCCCCCC/C=C/CCCCCCCC(=O)C(F)(F)F,780,170
CCCCOC[C@@H]1CCCC[C@H]1COCCCC(=O)C(F)(F)F,9700,1200
CCCCCCCC/C=C\CCCCCCCC(=O)C(F)(F)F,460,82
CCCCCCCCc1ccccc1CCCCCCCC(=O)C(F)(F)F,2500,320
CCCCCCCCCCCCCC(=O)C(F)(F)F,2300,490
CCCCCCC(=O)C(F)(F)F,52800,10700
CCCCc1cc2ccccc2cc1CCCC(=O)C(F)(F)F,30100,4400
CCCCOC[C@H]1CC=CC[C@H]1COCCCC(=O)C(F)(F)F,3000,570
CCCCCCc1ccccc1CCCCCC(=O)C(F)(F)F,13100,2800
CCCCCCCC/C=C\CCCCCCCC(C)=O,> 100000,> 100000
CCCCCC(=O)C(F)(F)F,185000,26900
CCCCCCCC(=O)C(F)(F)F,6600,1200
CCCCOC[C@H]1CCCC[C@H]1COCCCC(=O)C(F)(F)F,5700,780

# Results, then the molecule that gave them:
IC50 [1] [nM],Ki [2] [nM],Compound
760,140,CCCCCCc1cccc(CCCCCCC(=O)C(F)(F)F)c1
840,170,O=C(CCCCCc1ccccc1)C(F)(F)F
1200,240,CCCCCCCCCCCCCCCCCC(=O)C(F)(F)F
600,130,CCCCCCCCCC(=O)C(F)(F)F
130,140,CCCCCCCCCCCC(=O)C(F)(F)F
590,96,CCCCCCCc1ccc(CCCCCCC(=O)C(F)(F)F)cc1
450,100,O=C(CCCCCCc1ccccc1)C(F)(F)F
120,25,O=C(CCCCCCCc1ccccc1)C(F)(F)F

# Reference: ChEMBL document CHEMBL1132027, “Trifluoromethyl ketone inhibitors of fatty acid amide hydrolase: a probe of structural and conformational features contributing to inhibition” (Bioorg Med Chem Lett, 1999)
